According to article PMC12677653, “Inhibition of Tumor Lipogenesis and Growth by Peptide‐Based Targeting of SREBP Activation” (Advanced Science, 2025):

Test system: SREBP1/SREBP2 target genes
Test: Quantitative PCR of SREBP target genes in Huh7 cells
Assay type: cell-based, human
Details: peptide 15 μM, IGF1 100 ng/mL 10 h, qPCR, n = 3
Description: Figure 1 The Insig1/2 loop 1 peptide binds to S90‐phosphorylated PCK1 and blocks PCK1‐mediated SREBP activation and tumor cell proliferation. Immunoblotting analyses were performed using the indicated antibodies; representative results from three independent experiments are shown (IP, immunoprecipitation; WB, western blot). a) Huh7 cells expressing various Insig1 (top) or Insig2 (bottom) truncation mutants were treated with or without IGF1 (100 ng mL^−1) for 1 h. b,c) Biolayer interferometry assays (Sartorius Octet) were employed to measure the binding affinity of Insig1/2 loop 1 peptide to GST‐PCK1 or GST‐PCK1 pS90 proteins. Data represent three independent experiments. d) Flag‐PCK1‐expressing Huh7 cells were pretreated with Insig1/2 loop 1 peptide (15 µM) for 1 h before IGF1 (100 ng mL^−1) stimulation. e) Huh7 cells were pretreated with low (7.5 µM) or high (15 µM) concentrations of Insig1/2 loop 1 peptide for 1 h before IGF1 (100 ng mL^−1) stimulation. f) Huh7 cells transiently transfected with β‐galactosidase and SRE‐driven luciferase reporter vectors were pretreated with Insig1/2 loop 1 peptide (15 µM) for 1 h, followed by stimulation with or without IGF1 (100 ng mL^−1) for 14 h. SRE luciferase activity was normalized to β‐galactosidase activity. Data represent the mean ± SD (n = 3). Statistical significance was determined by one‐way analysis of variance (ANOVA). g) Following pretreatment with Insig1/2 loop 1 peptide (15 µM) and IGF1 stimulation (100 ng mL^−1, 8 h), Huh7 cells were subjected to immunofluorescence analysis (scale bar: 10 µm). h) Quantitative PCR analysis of SREBP1 target gene GPAM in Huh7 cells pretreated with Insig1/2 loop 1 peptide (15 µM) and stimulated with IGF1 (100 ng mL^−1) for 10 h. Data represent the mean ± SD (n = 3). Statistical significance was determined by one‐way analysis of variance (ANOVA). i) Quantitative PCR analysis of SREBP1 target gene FASN in Huh7 cells pretreated with Insig1/2 loop 1 peptide (15 µM) and stimulated with IGF1 (100 ng mL^−1) for 10 h. Data represent the mean ± SD (n = 3). Statistical significance was determined by one‐way analysis of variance (ANOVA). j) Intracellular triglyceride (TG) content was quantified in Huh7 cells pretreated with Insig1/2 loop 1 peptide (25 µM) and stimulated with IGF1 (100 ng mL^−1) for 24 h. […] Statistical significance was determined by one‐way analysis of variance (ANOVA). k) Cell proliferation was assessed by automated cell counting after 72 h of IGF1 stimulation (100 ng mL^−1) in Huh7 cells pretreated with Insig1/2 loop 1 peptide (25 µM) for 1 h. […] Statistical significance was determined by one‐way analysis of variance (ANOVA). l) FLAG‐Insig1, Flag‐Insig1 S207A or FLAG‐ Insig1 S207D was expressed in Huh7 cells with depletion of Insig1 by expressing Insig1 shRNA. […]

Sequence: RKKRRQRRRLYPCIDSHLGEPHKFKRE [Insig1/2 loop 1 peptide]
- SREBP2-mediated expression of HMGCS1: suppressed
- SREBP2-mediated expression of LDLR: suppressed
- expression of FASN: markedly inhibited
- expression of GPAM: markedly inhibited
